Counter-ions that a name gives are not always drawn.
Experiments:
[1] = acute toxicity investigation (LD50); details: mouse, in vivo, mice
Protocol: The compounds prepared were subjected to acute toxicity investigations. For this purpose, the compounds under test were dissolved in an aqueous sodium carbonate solution and administered intraperitoneally (i.p.) or intravenously (i.v.) to the animals (40 days old CFLP female mice).
Some characteristic LD50 values of the compounds of the invention are as follows: […]

CFY male rats [2] = experiment: liver protecting effect: carbon tetrachloride intoxication followed by treatment with the compounds under test; assay type: in vivo, rat (CFY male); details: CCl4 1.5 g/kg orally, compound 100 mg/kg i.p. after 6 hours; for TG (triglyceride content of the liver): control 40 ± 8, CCl4 alone 86 ± 17; for SGOT activity: control 81.7 ± 16, CCl4 alone 269.0 ± 14
Protocol: (§1) In order to investigate the liver protecting effect, the compounds were tested at CFY male rats with 200 to 240 g of body-weight after a starvation for 18 hours.
(§2) An experimental liver damage was elicited by using carbon tetrachloride, allyl alcohol or galactosamine. The activity of the serum glutamate-oxalacetate-transaminase (SGOT), the triglyceride (TG) content of the liver as well as the histological picture of the liver were studied.
(§3) Liver damaging agents (1.5 g/kg of body-weight of carbon tetrachloride orally; 0.75 g/kg of body-weight of galactosamine intraperitoneally) were administered to the starved animals, whereupon the animals received the compound under test in a dose of 100 mg/kg of body-weight intraperitoneally after 6 hours.
(a) The results of the carbon tetrachloride intoxication followed by treatment with the compounds under test are as follows: […]

CFY male rats [3] = experiment: liver protecting effect: allyl alcohol intoxication followed by treatment with the compounds under test; assay type: in vivo, rat (CFY male); details: compound 100 mg/kg of body-weight, after 24 hours, before 1.81±0.43, allyl alcohol 4.16±1.63
Protocol: as §1, §2, §3
(b) The results of the allyl alcohol intoxication followed by treatment with the compounds under test are as follows:
After 24 hours, the animals were killed and the activity of the serum glutamate-pyruvate-transaminase (SGPT) was determined. After a treatment with allyl alcohol, the SGPT level was increased from a value of 1.81±0.43 μmoles/ml.h. to 4.16±1.63 μmoles/ml. h. This increase was diminished to 2.84±0.97 μmoles/ml.h. by a treatment with a 100 mg/kg of body-weight dose of the compound described in Example 1.

CFY male rats [4] = experiment: liver protecting effect: galactosamine damage followed by treatment with the compounds under test (histology); assay type: in vivo, rat (CFY male); details: galactosamine 0.75 g/kg i.p., compound i.p. 6 hours later

SMILES	TG (triglyceride content of the liver) (CFY male rats [2]) [µg/mg protein]	SGOT activity (CFY male rats [2]) [unit/liter]	also measured
CC1(C)SC(c2ccc([N+](=O)[O-])o2)N[C@H]1C(=O)O (stereo partly drawn) [Example 1, 5,5-Dimethyl-2-(5-nitro-2-furyl)-thiazolidine-4(S)-carboxylic acid]	51 ± 15	224.0 ± 14	LD50 ([1]; iv): 2190 mg/kg; SGPT level (activity of the serum glutamate-pyruvate-transaminase) (CFY male rats [3]): 2.84 ± 0.97 µmol/mL/h; number of focally appearing parenchymal necroses (CFY male rats [4]): diminished; severity of the alterations characteristic of the galactosamine hepatitis (CFY male rats [4]): diminished
CC1(C)SC(c2ccco2)N[C@H]1C(=O)O (stereo partly drawn) [Example 2, 5,5-Dimethyl-2-(2-furyl)-thiazolidine-4(S)-carboxylic acid]	84 ± 6	229.0 ± 14	number of focally appearing parenchymal necroses (CFY male rats [4]): diminished; severity of the alterations characteristic of the galactosamine hepatitis (CFY male rats [4]): diminished
Cn1cccc1C1N[C@@H](C(=O)O)C(C)(C)S1 (stereo partly drawn) [Example 4, 5,5-Dimethyl-2-(N-methyl-2-pyrrolyl)thiazolidine-4(S)-carboxylic acid]	114 ± 24	241.0 ± 21	
CC1(C)SC(c2cccnc2)N[C@H]1C(=O)O (stereo partly drawn) [Example 5, 5,5-Dimethyl-2-(3-pyridyl)-thiazolidine-4(S)-carboxylic acid]	61 ± 14	243.0 ± 21	
CC1(C)SC(c2ccncc2)N[C@H]1C(=O)O (stereo partly drawn) [Example 6, 5,5-Dimethyl-2-(4-pyridyl)-thiazolidine-4(S)-carboxylic acid]	88 ± 20	250.0 ± 13	
CC1(C)SC(c2cc3ccccc3o2)N[C@H]1C(=O)O (stereo partly drawn) [Example 7, 2-(2-Benzofuryl)-5,5-dimethylthiazolidine-4(S)-carboxylic acid]	61 ± 13	224.0 ± 14	
CC1(C)SC(c2ccc3c(c2)CCC3)N[C@H]1C(=O)O (stereo partly drawn) [Example 8, 5,5-Dimethyl-2-(5-indanyl)-thiazolidine-4(S)-carboxylic acid]	76 ± 10	234.0 ± 23	
CC1(C)SC(c2cccc([N+](=O)[O-])c2)N[C@H]1C(=O)O (stereo partly drawn) [Example 9, 5,5-Dimethyl-2-(3-nitrophenyl)-thiazolidine-4(S)-carboxylic acid magnesium salt]	83 ± 19	232.0 ± 34	
CC1(C)SC(c2ccc(F)cc2)N[C@H]1C(=O)[O-].[K+] (stereo partly drawn) [Example 10, 5,5-Dimethyl-2-(4-fluorophenyl)-thiazolidine-4(S)-carboxylic acid and potassium salt]	81 ± 11	227.0 ± 40	
CSc1ccc(C2N[C@@H](C(=O)O)C(C)(C)S2)cc1 (stereo partly drawn) [Example 11, 5,5-Dimethyl-2-(4-methylmercaptophenyl)-thiazolidine-4(S)-carboxylic acid]	70 ± 14	235.0 ± 19	
CC1(C)SC(CO)N[C@H]1C(=O)O (stereo partly drawn) [Example 14, 5,5-Dimethyl-2-hydroxymethylthiazolidine-4(S)-carboxylic acid]			LD50 ([1]; ip): 5000 mg/kg
CC(=O)N1[C@@H](c2ccc(Cl)cc2)SC(C)(C)[C@@H]1C(=O)O [Example 22, 3-Acetyl-2(R)-(4-chlorophenyl)-5,5-dimethylthiazolidine-4(S)-carboxylic acid]			LD50 ([1]; ip): 550 mg/kg
CC(=O)N1[C@@H](C(=O)O)C(C)(C)S[C@H]1c1ccccc1 [Example 27, 3-Acetyl-5,5-dimethyl-2(S)-phenylthiazolidine-4(S)-carboxylic acid]			LD50 ([1]; ip): 1500 mg/kg
CC(=O)N1[C@@H](C(=O)O)C(C)(C)S[C@H]1c1ccc([N+](=O)[O-])o1 [Example 30, 3-Acetyl-5,5-dimethyl-2(S)-(5-nitro-2-furyl)-thiazolidine-4(S)-carboxylic acid]			LD50 ([1]; ip): 2500 mg/kg
Oc1cc(O)c2c(c1)O[C@H](c1ccc(O)c(O)c1)[C@@H](O)C2 [catergen, (+)2-(3,4-dihydroxyphenyl)-3,5,7-chromanetriol, reference compound]	77 ± 7	241.0 ± 23	

— US4775675A, “Thiazolidinecarboxylic acid derivatives and treatment of liver diseases therewith” (Biogal Gyogyszergyar, priority 1985, dated 1988)
